Reference: paper PMC10220285, “Development of an assay pipeline for the discovery of novel small molecule inhibitors of human glutathione peroxidases GPX1 and GPX4” (Redox Biology, 2023)

Assays:
GPX1 = biological target: T1, GPX1 (Homo sapiens, UniProt P07203); assay: nanoDSF thermal stabilization, GPX1; format: binding
T1 construct: made in house; host or cells: E. coli
T1 sequence (P07203 1-203): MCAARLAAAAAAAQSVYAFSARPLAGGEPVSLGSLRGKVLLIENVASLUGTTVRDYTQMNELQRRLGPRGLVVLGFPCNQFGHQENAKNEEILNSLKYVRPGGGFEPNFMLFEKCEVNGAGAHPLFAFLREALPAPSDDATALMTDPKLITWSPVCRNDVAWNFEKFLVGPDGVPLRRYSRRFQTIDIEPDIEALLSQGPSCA
Procedure: Thermal stabilization of enzyme ± DMSO or ± compound was carried out in a Prometheus NT.48 instrument (NanoTemper Technologies) with an excitation wavelength of 280 nm. Intrinsic fluorescence at 330 nm and 350 nm was monitored while heating. Capillaries were filled with ∼10 μL of a solution of GPX1/4 (1 mg/mL), ± small molecule (100 μM) or DMSO, in TES buffer and placed into the instrument. The capillaries were subjected to a temperature range from 30 to 90 °C at a ramp rate of 2 °C/min. The ratio of the recorded emission intensities (350nm/330 nm) were plotted as a function of temperature. This ratio and first derivatives were calculated using the NanoTemper software and were plotted using GraphPad Prism.

GPX4 = biological target: T2, GPX4 (Homo sapiens, UniProt P36969); assay: GR-coupled GPX4 activity assay (NADPH fluorescence, CHP substrate); format: biochemical; conditions: Fig. 9 pan-selenoprotein inhibitors
T2 construct: made in house; host or cells: E. coli
T2 sequence (P36969 1-170 isoform P36969-2): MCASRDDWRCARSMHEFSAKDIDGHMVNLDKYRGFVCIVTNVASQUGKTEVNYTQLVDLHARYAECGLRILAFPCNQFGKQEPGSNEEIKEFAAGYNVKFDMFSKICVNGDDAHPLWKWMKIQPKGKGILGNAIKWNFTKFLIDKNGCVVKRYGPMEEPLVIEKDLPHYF
Procedure: (§1) The compound plates were prepared as described previously. Purified recombinant human GPX1, GPX2, GPX4, GR, and TXNRD1 were produced and purified as previously reported [[48], [49], [50]]. As production of GPX2 was not optimized at the onset of screening, only GPX1 and GPX4 underwent library screening, and GPX2 was used as a follow-up.
(§2) Follow-up and orthogonal assays were run in quadruplicate unless otherwise stated. Assay schemes are illustrated in Fig. 1.
To measure GPX activity, assays were performed in 1536-well format in black medium-binding solid-bottom plates (Greiner). These assay conditions were optimized for high-throughput screening from an assay first described by Paglia and Valentine. GPX activity is measured indirectly by coupling the reaction with GR whereby GPX reduces hydroperoxide by oxidizing two GSH to GSSG and the oxidized glutathione is recycled to its reduced state by GR and NADPH (Fig. 1B). The rate of consumption of NADPH is directly proportional to the activity of GPX and can be measured by the decrease in fluorescence at 340 nm/450 nm.
First, 3 μL of enzyme in TES assay buffer (50 mM Tris-HCl, 2 mM EDTA (pH 7.5), 150 mM NaCl with enzyme [10 nM GPX1, 200 nM GPX4 ] and BSA [0.01%]) was added to columns 3–48 of 1536-well plates using a BioRAPTR Flying Reagent Dispenser (Let's Go Robotics (LGR), Carlsbad, CA). A no-enzyme control (0.01% BSA in TES assay buffer) was added to columns 1–2. Compounds (25 nL, library and DMSO controls) were added to each well with a pin tool (Kalypsys), and the plates were incubated for 30 min at room temperature before 1 μL of master mix (100 nM GR, 1 mM GSH, 0.5 mM NADPH in TES buffer) was added. 1 μL of cumene hydroperoxide (CHP) ([0.5 mM] in 50% EtOH) was then added within 5 min to initiate the reaction. Fluorescence at 340/450 nm was measured using a ViewLux multimodal detector (PerkinElmer, Waltham, MA) at initial t = 0 and endpoint t = 15 min (GPX1) or t = 20 min (GPX4).
Follow-up confirmation assays were also run in 96-well format using medium binding clear 96-well SpectraPlate microplates (PerkinElmer) and NADPH absorbance at 340 nm was measured every 30 s for 30 min using an Infinite® M Nano (Tecan).
(§3) Percent activity was determined by first calculating delta RFU (decrease in fluorescence between t = 0 and t = 20/30 min in primary GPX, GR counter-screen, and TXNRD1 assays, or increase in fluorescence between t = 0 and t = 20 min in the Monobromobimane GPX endpoint assay), and normalizing enzyme activity using median delta RFU values for DMSO-treated enzyme control, and DMSO-treated no-enzyme controls.
(§4) Compound inhibitory activity in the qHTS assays was determined by plotting dose-response data for each sample and fitting with a four-parameter logistic fit to assess IC50 values, efficacy (maximal response), and AUC (area under the curve), as previously described. Hits were classified by the quality of the concentration-response curves (CRC). Curve classes −1.1 and −1.2 being the highest-confidence actives with complete CRCs and classes −2.1 and −2.2 being lower-confidence actives with incomplete CRCs.

[1] = biological target: T3, GR (glutathione reductase) (Homo sapiens, UniProt P00390); assay: GR counter-assay; format: biochemical; conditions: Fig. 9 pan-selenoprotein inhibitors
T3 construct: made in house
T3 sequence (P00390 44-522): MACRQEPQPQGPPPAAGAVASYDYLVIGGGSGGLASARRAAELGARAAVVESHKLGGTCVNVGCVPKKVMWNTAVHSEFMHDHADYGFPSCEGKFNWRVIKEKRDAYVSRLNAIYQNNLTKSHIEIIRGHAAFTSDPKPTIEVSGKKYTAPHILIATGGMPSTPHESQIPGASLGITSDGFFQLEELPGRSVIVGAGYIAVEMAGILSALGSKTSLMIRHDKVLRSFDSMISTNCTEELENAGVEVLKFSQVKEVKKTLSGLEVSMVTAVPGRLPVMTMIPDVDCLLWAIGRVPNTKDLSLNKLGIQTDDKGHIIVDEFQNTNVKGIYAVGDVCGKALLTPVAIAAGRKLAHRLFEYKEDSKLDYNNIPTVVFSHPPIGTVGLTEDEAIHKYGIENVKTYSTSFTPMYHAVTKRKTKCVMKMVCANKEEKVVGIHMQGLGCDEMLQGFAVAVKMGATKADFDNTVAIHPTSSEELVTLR
Procedure: as §1, §2
To identify false positive compounds that interfere with the primary assay through inhibition of GR, ‘hits’ from the primary screening were run against a GR counter assay to identify this possible off-target inhibition (Fig. 1C). Briefly, 3 μL enzyme mixture (100 nM GR, 0.01% BSA in TES buffer) was dispensed into columns […] of a 1536-well black medium-binding solid-bottom plates. The no-enzyme control (0.01% BSA in TES buffer) was included in column 1 and 2. Compounds and controls (23 nL) were added to each well with a pin tool (Kalypsys), and the plates were incubated for 30 min before 2 μL of substrate mixture (1 mM GSSG 0.4 mM NADPH in TES buffer) was added to each well and absorbance at 340 nm was measured at t = 0 and t = 20 min using a ViewLux Multimodal detector (PerkinElmer).
as §3, §4

| inhibition of GPX4 (GPX4) | inhibition of GPX4 (GPX4; listed as 2,3-dimercaptopropanesulfonic acid) | inhibition of GR [1] | SMILES | GSH Binding (ΔTm) GPx1; shift in nanoDSF melting temperature (GPX1; 100 μM small molecule vs DMSO control, first or only inflection point) | thermal stabilization of GPX1 (GPX1; nanoDSF) |
| --- | --- | --- | --- | --- | --- |
|  |  |  | CC(=O)OC[C@H]1O[C@@H]([S-])[C@H](OC(C)=O)[C@@H](OC(C)=O)[C@@H]1OC(C)=O.CCP(CC)CC.[Au+] [Auranofin] | +8.3 °C | significant shifts in the melting temperature of GPX1 |
| inhibited all tested selenoproteins | inhibited all selenoproteins | not GR | O=S(=O)(O)CC(S)CS (centres unmarked) [2,3-dimercaptopropanesulfonate] |  |  |
